Experiments:
[1] = tested on: PANC-1, PANC 02.13, MIA PaCa-2, Capan-1, KLM, AsPC-1 and BXPC3 cells; experiment: Cytotoxicity/cell viability with romidepsin, DMPatA and their combination in seven PDAC cell lines (FIG. 1A); assay type: cell-based; details: romidepsin 15 nM for 6 h, alone or with DMPatA 2 nM
Description: FIG. 1A compares cytotoxicity graphs of the effect of romidepsin alone at increasing doses (circles), DMPatA alone at 2 nM (diamond), and combination of romidepsin with DMPatA at 2 nM (triangles) on PANC-1, PANC 02.13, MIA PaCa-2, Capan-1, KLM, AsPC-1 and BXPC3 cells. Romidepsin treatment in both the single agent and the combination was for 6 hours after which it was washed out and medium replaced with fresh medium without (single agent romidepsin) or with DMPatA for an additional 42 hours (combination).
This schedule of romidepsin treatment features a 6-hour exposure followed by washout of romidepsin and replacement with fresh media, whereas most investigators expose cells to 1-2 nM over 48-96 hours of continuous romidepsin. […] Thus a 6-hour exposure is more clinically relevant. Most cell types are susceptible to romidepsin over non-clinically relevant long treatment durations.
It was initially hypothesized that the HDAC-inhibitor romidepsin could cause synergistic cell death when combined with DMPatA via a reduction in MYC levels previously seen with both eIF4A inhibitors and with romidepsin in KRAS cells. […]
Cell viability was determined using CellTiter-Glo® reagent (Promega, #G7570) following the manufacturer's instructions. […] After incubation, assay reagent was added, and luminescent signals were quantified using a microplate reader (PHERAstar® FS, BMG LABTECH, Ortenberg, Germany). […]

MIA PaCa-2 cells = experiment: Cellular acetyl-CoA levels by LC-MS (FIG. 8D); assay type: cell-based; details: MIA PaCa-2, total 18 h
Description: FIG. 8D compares cellular acetyl-CoA levels measured in MIA PaCa-2 cells using LC-MS following treatment of cells with the combination or with single agents as mentioned in FIG. 8A. At least three biological replicate experiments were carried out. Statistical significance was determined by two-way ANOVA, ****p value<0.0001, ***p value<0.0004.
Five million cells were seeded in 150 mm cell culture dishes. Cells were treated with combination or single agents for a total of 18 h (6-+12-hours). Following treatment cells were harvested on ice, washed, and scraped out under liquid nitrogen. Prior to extraction an aliquot of the cell pellet was collected and subjected to protein quantification.
For Acetyl-CoA extraction, a 100 μL aliquot of the thawed pellet was spiked with ^13C2-acetyl-CoA as an internal standard, extracted with 400 μL of methanol, vortexed, and centrifuged at […] for 5 minutes at 4 °C. The methanol supernatant (400 μL) was then dried under nitrogen at 35 °C and reconstituted in 100 μL of 10 mM ammonium bicarbonate (pH 9.5) for LC/MS analysis. Calibration curve standards were similarly prepared as the cell pellets. Acetyl-CoA quantification by LC/MS was performed on an Agilent 1290 Infinity UHPLC/6495 triple quadrupole mass spectrometer, using multiple reaction monitoring. […]

p-RPA = experiment: Immunoblot of phospho-RPA2 (FIG. 11A); assay type: cell-based; details: total 24 h (romidepsin 6 h + 18 h with/without 2 nM DMPatA)
Description: FIG. 11A compares immunoblots of p-RPA and p-CHK1 protein levels from whole cell extracts following treatment with the combination and romidepsin for a total of 24 h (i.e., romidepsin treatment was for 6 h followed by 18-hour incubation with 2 nM DMPatA (combo) or without (Romi alone)).
Having observed R-loop accumulation following treatment with the combination, it was hypothesized that hypertranscription, persistent hyperacetylation, and R-loop accumulation could increase the incidence of transcription replication conflicts, genome instability, and DNA damage and contribute to cell death. […]
Western blotting was carried out as previously described (Luchenko V L, Litman T, Chakraborty A R, et al. 65. Membranes were probed with primary antibodies: Phospho-Histone H2A.X (Ser139) (1:1000, Millipore Sigma #05-636), GAPDH (1:10000, Abcam #ab8245), c-Myc (1:1000, Abcam #ab32072), β-Actin (1:1000, Cell Signaling Technology (CST), #8457), Phospho-RPA32/RPA2 (Ser33) (1:1000, Cell Signaling Technology #10148), Phospho-Chk1 (Ser345) (1:1000, CST #2341), and secondary antibodies IRDye® 680RD Goat anti-Mouse and IRDye® 800CW Goat anti-Rabbit (both from LI-COR Biosciences). Signal quantification was performed using the Odyssey CLx imaging system (LI-COR Biosciences), capturing various exposures within the linear range with ImageStudio software V3.1 (LI-COR Biosciences).

cells = details: 50 nM, 6-hour exposure; cited from earlier work

C/C=C1\NC(=O)[C@H]2CSSCC/C=C/[C@H](CC(=O)N[C@H](C(C)C)C(=O)N2)OC(=O)[C@H](C(C)C)NC1=O [romidepsin]
toxicity / lethality at low concentration [1]: minimal to no toxicity | cellular acetyl-CoA levels (MIA PaCa-2 cells): significant reduction | phospho-RPA2 (p-RPA): Accumulation | susceptibility of cells to romidepsin (cells): Only a subset of cells susceptible

— patent US20260335398A1, “METHODS FOR TREATING PANCREATIC CANCER WITH A COMBINATION OF DES-METHYL PATEAMINE A AND A CLASS I HDAC INHIBITOR” (Baylor University, priority 2023, published 2026)
